Results from the NIST ThermoML archive (doi:10.1021/je100972k).
“And” between values parts separate entries of the source, which are not always exact repeats. Identical values can stand only once. ± gives the expanded uncertainty stated by the source.

Conditions: Crystal

[F-].[F-].[F-].[F-].[Zr+4] [zirconium(IV) fluoride]
Conditions | vapor or sublimation pressure
685 K | 8.13e-06 ± 2.1e-06 kPa
689 K | 8.13e-06 ± 2.1e-06 kPa
690 K | 1.05e-05 ± 2.7e-06 kPa
693 K | 1.05e-05 ± 2.7e-06 kPa and 1.62e-05 ± 4.1e-06 kPa
698.5 K | 1.62e-05 ± 4.1e-06 kPa
699 K | 1.55e-05 ± 3.9e-06 kPa and 2.4e-05 ± 6.1e-06 kPa
704 K | 1.2e-05 ± 3.1e-06 kPa
705 K | 3.24e-05 ± 8.2e-06 kPa
706.5 K | 2.4e-05 ± 6.1e-06 kPa
707 K | 3.09e-05 ± 7.8e-06 kPa
709 K | 3.09e-05 ± 7.8e-06 kPa
709.5 K | 2.82e-05 ± 7.1e-06 kPa
711 K | 4.9e-05 ± 1.2e-05 kPa
711.5 K | 1.62e-05 ± 4.1e-06 kPa
712.5 K | 2.4e-05 ± 6.1e-06 kPa
713 K | 4.17e-05 ± 1e-05 kPa
713.5 K | 3.24e-05 ± 8.2e-06 kPa
715 K | 2.04e-05 ± 5.2e-06 kPa
717 K | 6.46e-05 ± 1.6e-05 kPa and 2.4e-05 ± 6.1e-06 kPa
719 K | 3.63e-05 ± 9.1e-06 kPa
720 K | 4.9e-05 ± 1.2e-05 kPa and 3.47e-05 ± 8.7e-06 kPa and 2.82e-05 ± 7.1e-06 kPa
720.5 K | 5.25e-05 ± 1.3e-05 kPa
721 K | 3.24e-05 ± 8.2e-06 kPa
723.5 K | 4.9e-05 ± 1.2e-05 kPa
724 K | 6.46e-05 ± 1.6e-05 kPa and 4.68e-05 ± 1.2e-05 kPa
724.5 K | 4.68e-05 ± 1.2e-05 kPa
725.5 K | 4.07e-05 ± 1e-05 kPa and 3.63e-05 ± 9.1e-06 kPa
726.5 K | 4.07e-05 ± 1e-05 kPa
728.5 K | 9.33e-05 ± 2.3e-05 kPa and 0.000112 ± 2.8e-05 kPa
729 K | 6.46e-05 ± 1.6e-05 kPa
729.5 K | 8.91e-05 ± 2.2e-05 kPa
730 K | 8.32e-05 ± 2.1e-05 kPa and 6.92e-05 ± 1.7e-05 kPa
731.5 K | 5.62e-05 ± 1.4e-05 kPa and 4.9e-05 ± 1.2e-05 kPa
732 K | 6.92e-05 ± 1.7e-05 kPa and 5.62e-05 ± 1.4e-05 kPa
734.5 K | 0.000112 ± 2.8e-05 kPa
735 K | 8.91e-05 ± 2.2e-05 kPa
735.5 K | 0.000162 ± 4.1e-05 kPa
736 K | 0.00012 ± 3e-05 kPa and 9.33e-05 ± 2.3e-05 kPa
737 K | 0.000117 ± 2.9e-05 kPa and 8.13e-05 ± 2e-05 kPa and 6.46e-05 ± 1.6e-05 kPa
737.5 K | 0.000145 ± 3.6e-05 kPa and 7.24e-05 ± 1.8e-05 kPa
739.5 K | 0.000135 ± 3.4e-05 kPa
740.5 K | 0.000155 ± 3.9e-05 kPa and 9.33e-05 ± 2.3e-05 kPa
741 K | 0.000112 ± 2.8e-05 kPa
742 K | 0.000219 ± 5.5e-05 kPa
743 K | 0.000141 ± 3.5e-05 kPa and 0.000105 ± 2.6e-05 kPa and 8.91e-05 ± 2.2e-05 kPa
743.5 K | 0.000162 ± 4.1e-05 kPa and 9.77e-05 ± 2.4e-05 kPa
746.5 K | 0.000224 ± 5.6e-05 kPa and 0.000209 ± 5.2e-05 kPa and 0.000204 ± 5.1e-05 kPa
748 K | 0.000162 ± 4.1e-05 kPa
748.5 K | 0.000282 ± 7.1e-05 kPa and 0.00012 ± 3e-05 kPa
749 K | 0.000151 ± 3.8e-05 kPa and 0.000129 ± 3.2e-05 kPa
750 K | 0.000145 ± 3.6e-05 kPa
750.5 K | 0.000209 ± 5.2e-05 kPa
751 K | 0.00024 ± 6e-05 kPa
751.5 K | 0.000251 ± 6.3e-05 kPa
753 K | 0.000209 ± 5.2e-05 kPa and 0.000158 ± 4e-05 kPa
754 K | 0.000324 ± 8.1e-05 kPa and 0.000209 ± 5.2e-05 kPa
754.5 K | 0.000372 ± 9.3e-05 kPa and 0.00017 ± 4.3e-05 kPa
755 K | 0.000178 ± 4.5e-05 kPa
756 K | 0.000288 ± 7.2e-05 kPa and 0.000417 ± 0.0001 kPa and 0.000302 ± 7.6e-05 kPa
756.5 K | 0.000302 ± 7.6e-05 kPa
757 K | 0.000302 ± 7.6e-05 kPa
757.5 K | 0.000251 ± 6.3e-05 kPa
758 K | 0.000195 ± 4.9e-05 kPa
759 K | 0.000257 ± 6.4e-05 kPa
760 K | 0.000234 ± 5.9e-05 kPa and 0.000219 ± 5.5e-05 kPa
760.5 K | 0.000363 ± 9.1e-05 kPa
763 K | 0.000513 ± 0.00013 kPa [middle of 4 runs]
764 K | 0.000234 ± 5.9e-05 kPa
765 K | 0.000347 ± 8.7e-05 kPa
765.5 K | 0.000302 ± 7.6e-05 kPa
766 K | 0.000468 ± 0.00012 kPa [middle of 5 runs]
766.5 K | 0.000457 ± 0.00011 kPa
769 K | 0.000741 ± 0.00018 kPa and 0.000437 ± 0.00011 kPa
770.5 K | 0.000447 ± 0.00011 kPa
771.5 K | 0.000363 ± 9.1e-05 kPa
772 K | 0.000537 ± 0.00013 kPa and 0.000407 ± 0.0001 kPa
773 K | 0.000417 ± 0.0001 kPa
774 K | 0.000891 ± 0.00022 kPa and 0.000427 ± 0.00011 kPa
775 K | 0.000646 ± 0.00016 kPa
777.5 K | 0.000603 ± 0.00015 kPa
778 K | 0.000525 ± 0.00013 kPa and 0.000501 ± 0.00013 kPa
779 K | 0.000724 ± 0.00018 kPa
781 K | 0.00055 ± 0.00014 kPa
783 K | 0.000646 ± 0.00016 kPa
783.5 K | 0.000933 ± 0.00023 kPa
784 K | 0.000813 ± 0.0002 kPa
785 K | 0.000646 ± 0.00016 kPa
786 K | 0.001 ± 0.00025 kPa
788 K | 0.00145 ± 0.00036 kPa
789 K | 0.000813 ± 0.0002 kPa
789.5 K | 0.00102 ± 0.00026 kPa
791 K | 0.000977 ± 0.00024 kPa
792 K | 0.00129 ± 0.00032 kPa
793 K | 0.00129 ± 0.00032 kPa
794 K | 0.00105 ± 0.00026 kPa
798 K | 0.00148 ± 0.00037 kPa and 0.00123 ± 0.00031 kPa and 0.00126 ± 0.00032 kPa
799 K | 0.00234 ± 0.00059 kPa
801 K | 0.00186 ± 0.00047 kPa and 0.0017 ± 0.00043 kPa
802 K | 0.00155 ± 0.00039 kPa
803 K | 0.00166 ± 0.00042 kPa
803.5 K | 0.00186 ± 0.00047 kPa
807 K | 0.00209 ± 0.00052 kPa
808 K | 0.00295 ± 0.00074 kPa
810.5 K | 0.0024 ± 0.0006 kPa
811 K | 0.00275 ± 0.00069 kPa and 0.00209 ± 0.00052 kPa
815 K | 0.00295 ± 0.00074 kPa
818 K | 0.00389 ± 0.00097 kPa
821 K | 0.0038 ± 0.00095 kPa
823 K | 0.00617 ± 0.0015 kPa
828 K | 0.00562 ± 0.0014 kPa
